Among the data in ChEMBL document CHEMBL5113479, “Pyrido[2,3-d]pyrimidine-2,4(1H,3H)-dione derivatives as RAF-MEK-ERK pathway signaling pathway blockers: Synthesis, cytotoxic activity, mechanistic investigation and structure-activity relationships” (Eur J Med Chem, 2022) are CC50 and IC50 values, retold here.

The nature of series [1]: Cytotoxicity against human C-28/I2 cells measured after 72 hrs by CCK8 assay. It is filed as toxicity, cell-based. (In general: Tetrazolium assays rely on reduction of a dye to a coloured formazan, in cell work by metabolically active cells.)
Another series relates to MCF7. The series is described as follows: Antiproliferative activity against human MCF7 cells assessed as inhibition of cell growth measured after 72 hrs by CCK8 assay. In kind it is functional, cell-based. The conditions noted are these: MCF7, 72 h.
The next series deals with A-375. The series is described as follows: Antiproliferative activity against human A-375 cells assessed as inhibition of cell growth measured after 72 hrs by CCK8 assay. It is filed as functional, cell-based. The conditions noted are these: A-375, 72 h.
A further series concerns SK-HEP1. The series is described as follows: Antiproliferative activity against human SK-HEP1 cells assessed as inhibition of cell growth measured after 72 hrs by CCK8 assay. Conditions: SK-HEP1, 72 h. It is filed as functional, cell-based.
In a further series the test system is SK-MEL-2. The series is described as follows: Antiproliferative activity against human SK-MEL-2 cells assessed as inhibition of cell growth measured after 72 hrs by CCK8 assay. It is filed as functional, cell-based. The conditions noted are these: SK-MEL-2, 72 h.

What is called CC50 is the concentration that lowers cell viability or growth by half. Read a low CC50 as harm at low concentration. A word on the IC50: it is the concentration that inhibits the measured activity by half.

Take `Cc1ccccc1NC(=O)CNc1cc(N(C)C)nc2c1c(=O)n(C)c(=O)n2C`: the CC50 at 72 h in series [1] was over 100 µM. For the same compound, the half-maximal inhibitory concentration (IC50) is 49.9 µM in the series on MCF7 and over 50 µM in the series on A-375.
The matching figures for `CCn1c(=O)n(C)c(=O)c2c(Nc3ccccn3)cc(=O)n(C)c21`: over 100 µM, 35 µM and 39.5 µM.
On to `Cn1c(=O)c2c(NC3CC3)c(Cc3ccccc3)c(=O)n(C)c2n(C)c1=O`, for which the cytotoxic concentration (CC50) at 72 h in series [1] is over 100 µM. Further, the IC50 in the series on MCF7 was 35.9 µM; in the series on A-375 it was 45.9 µM.
For the compound `O=c1[nH]cc(F)c(=O)[nH]1` [FLUOROURACIL], the half-maximal inhibitory concentration (IC50) in the series with SK-HEP1 was 4.95 µM; in the series with SK-MEL-2, 6.52 µM; in the series with MCF7 it was 7.42 µM; in the series with A-375, 5.98 µM.
`CC(C)Nc1c(Cc2ccccc2)c(=O)n(C)c2c1c(=O)n(C)c(=O)n2C` yielded a half-maximal cytotoxic concentration (CC50) at 72 h in series [1] of over 100 µM. For the same compound, the IC50 in the series on MCF7 came to 9.98 µM; in the series with A-375 it was 24.5 µM.
For `CN1CCN(c2cc(NCC(=O)Nc3cccc(C(F)(F)F)c3)c3c(=O)n(C)c(=O)n(C)c3n2)CC1`, in series [1], the 50% cytotoxic concentration (CC50) at 72 h is over 100 µM. Moreover, the half-maximal inhibitory concentration (IC50) is over 50 µM in the series on SK-MEL-2 and 45 µM in the series on A-375.
The compound `Cn1c(=O)c2c(NCC(=O)Nc3cccc(Cl)c3)cc(N3CCCC3)nc2n(C)c1=O` returned a CC50 at 72 h in series [1] of over 100 µM. Moreover, the IC50 is over 50 µM with SK-MEL-2 and 48.6 µM in the series with A-375.
`CCn1c(=O)n(C)c(=O)c2c(Nc3ccc(F)c(Cl)c3)cc(=O)n(C)c21` returned a 50% cytotoxic concentration (CC50) at 72 h in series [1] of over 100 µM. For the same compound, the IC50 with MCF7 and in the series on A-375 was over 50 µM each time.
The compound `Cn1c(=O)c2c(NCC(=O)Nc3cccc(C(F)(F)F)c3)cc(N3CCOCC3)nc2n(C)c1=O` returned a 50% cytotoxic concentration (CC50) at 72 h in series [1] of over 100 µM. Also, the IC50 in the series with SK-HEP1 was 11 µM; with SK-MEL-2, 4.03 µM; in the series on MCF7, 12 µM; in the series on A-375, 7.36 µM.
`CN(C)c1cc(NCC(=O)Nc2ccc(C(F)(F)F)cc2)c2c(=O)n(C)c(=O)n(C)c2n1`: in series [1], the 50% cytotoxic concentration (CC50) at 72 h is over 50 µM. Besides, the concentration for half-maximal inhibition (IC50) was over 50 µM with SK-MEL-2 and 43.2 µM in the series with A-375.
The compound `Cc1ccccc1NC(=O)CNc1cc(N2CCCC2)nc2c1c(=O)n(C)c(=O)n2C` came in with a CC50 at 72 h in series [1] of over 100 µM. Also, the half-maximal inhibitory concentration (IC50) in the series with SK-HEP1 is 10.7 µM; in the series with SK-MEL-2 it was 6.59 µM; in the series on MCF7, 15.8 µM; with A-375 it was 7.6 µM.
In series [1], `Cn1c(=O)c2c(NCC(=O)Nc3ccc(C(F)(F)F)cc3)cc(N3CCOCC3)nc2n(C)c1=O` yielded a CC50 at 72 h of over 100 µM. The half-inhibitory concentration (IC50) in the series with MCF7 was 46.6 µM; in the series on A-375, over 50 µM.
In the case of `CN(C)c1cc(NCC(=O)Nc2cccc(C(F)(F)F)c2)c2c(=O)n(C)c(=O)n(C)c2n1`, the CC50 at 72 h in series [1] is over 100 µM. In addition, the half-maximal inhibitory concentration (IC50) is over 50 µM in the series with SK-MEL-2 and 31.9 µM with A-375.
In series [1], `Cn1c(=O)c2c(NCC(=O)Nc3ccc(Cl)cc3)cc(N3CCCC3)nc2n(C)c1=O` yielded a cytotoxic concentration (CC50) at 72 h of over 100 µM. The IC50 with MCF7 is 41.2 µM; in the series on A-375, 48.2 µM.
Take `Cc1cccc(NC(=O)CNc2cc(N3CCN(C)CC3)nc3c2c(=O)n(C)c(=O)n3C)c1`: the CC50 at 72 h in series [1] was over 25 µM. Besides, the IC50 came out at 17.3 µM in the series on SK-HEP1, 42.3 µM in the series with SK-MEL-2 and 40 µM with A-375.
In series [1], `Cn1c(=O)c2c(NCC(=O)Nc3ccc(F)cc3)cc(N3CCOCC3)nc2n(C)c1=O` came in with a half-maximal cytotoxic concentration (CC50) at 72 h of over 100 µM. Also, the concentration for half-maximal inhibition (IC50) with MCF7 was 45.4 µM; in the series with A-375 it was over 50 µM.
Consider `CN1CCN(c2cc(NCC(=O)Nc3ccc(OC(F)(F)F)cc3)c3c(=O)n(C)c(=O)n(C)c3n2)CC1`, for which the CC50 at 72 h in series [1] was over 100 µM. The IC50 in the series with SK-HEP1 turned out to be 34 µM; in the series with SK-MEL-2, 36.6 µM; in the series with MCF7, 39.3 µM; in the series with A-375 it was 30.5 µM.
In series [1], `CN(C)c1cc(NCC(=O)Nc2ccc(OC(F)(F)F)cc2)c2c(=O)n(C)c(=O)n(C)c2n1` came in with a 50% cytotoxic concentration (CC50) at 72 h of over 25 µM. Also, the 50% inhibitory concentration (IC50) is over 50 µM in the series on SK-MEL-2 and 39.2 µM in the series with A-375.
`Cn1c(=O)c2c(NCC(=O)Nc3ccccc3)cc(N3CCCC3)nc2n(C)c1=O` came in with a cytotoxic concentration (CC50) at 72 h in series [1] of over 100 µM. Besides, the IC50 was 42.3 µM in the series on MCF7 and over 50 µM in the series on A-375.
The corresponding values for `Cn1c(=O)c2c(Nc3ccc(F)c(Cl)c3)cc(=O)n(C)c2n(C)c1=O` are over 100 µM, over 50 µM and 49.6 µM.
Turning to `Cn1c(=O)c2c(NCC(=O)Nc3ccc(Cl)cc3)cc(N3CCOCC3)nc2n(C)c1=O`, the CC50 at 72 h in series [1] is over 100 µM. Also, the IC50 with SK-MEL-2 stood at 46.5 µM; in the series with A-375 it was 43.2 µM.
The compound `CN1CCN(c2cc(NCC(=O)Nc3ccc(F)cc3)c3c(=O)n(C)c(=O)n(C)c3n2)CC1` registered a cytotoxic concentration (CC50) at 72 h in series [1] of over 50 µM. The IC50 in the series on SK-HEP1 stood at 34.2 µM; in the series on SK-MEL-2, 19.9 µM; in the series on MCF7 it was 32.9 µM; in the series with A-375, 44.7 µM.
`Cn1c(=O)c2c(NCC(=O)Nc3ccc(OC(F)(F)F)cc3)cc(N3CCCC3)nc2n(C)c1=O` gave a CC50 at 72 h in series [1] of over 100 µM. Further, the IC50 with MCF7 was 36.2 µM; in the series with A-375 it was over 50 µM.
The corresponding values for `Cn1c(=O)c2c(NCC(=O)Nc3ccc(F)cc3)cc(N3CCCC3)nc2n(C)c1=O` are over 100 µM, 39.6 µM and over 50 µM.
`Cn1c(=O)c2c(Nc3ccccn3)cc(=O)n(C)c2n(C)c1=O` came in with a CC50 at 72 h in series [1] of over 100 µM. Besides, the figures for the IC50 with MCF7 and in the series on A-375 were 10.2 µM and 25 µM, respectively.
In turn, `CN1CCN(c2cc(NCC(=O)Nc3ccc(Cl)cc3)c3c(=O)n(C)c(=O)n(C)c3n2)CC1` showed a CC50 at 72 h in series [1] of over 25 µM. The IC50 with SK-HEP1 was over 50 µM; with SK-MEL-2 it was 22.4 µM; in the series on MCF7, over 50 µM; with A-375, over 50 µM.
`CCn1c(=O)n(C)c(=O)c2c(Nc3ccccc3C(=O)OC)cc(=O)n(C)c21`: the cytotoxic concentration (CC50) at 72 h in series [1] was over 100 µM. Besides, the concentration for half-maximal inhibition (IC50) with MCF7 and in the series on A-375 was over 50 µM each time.
As for `Cn1c(=O)c2c(NCCCN3CCOCC3)c(Cc3ccccc3)c(=O)n(C)c2n(C)c1=O`, in series [1], the CC50 at 72 h was over 100 µM. The IC50 in the series on MCF7 and in the series on A-375 was over 50 µM each time.
In series [1], `CN(C)CCNc1c(Cc2ccccc2)c(=O)n(C)c2c1c(=O)n(C)c(=O)n2C` came in with a CC50 at 72 h of over 100 µM. The IC50 in the series on MCF7 and with A-375 was over 50 µM in each case.
As for `CN(C)c1cc(NCC(=O)Nc2cccc(Cl)c2)c2c(=O)n(C)c(=O)n(C)c2n1`, in series [1], the 50% cytotoxic concentration (CC50) at 72 h was over 100 µM. Also, the IC50 is 41.2 µM in the series on SK-MEL-2 and over 50 µM with A-375.
Compound `CN(C)c1cc(NCC(=O)Nc2ccc(F)cc2)c2c(=O)n(C)c(=O)n(C)c2n1` returned a CC50 at 72 h in series [1] of over 100 µM. Moreover, the half-inhibitory concentration (IC50) worked out at 47.5 µM with MCF7 and 45.7 µM with A-375.
As for `CN1CCN(c2cc(NCC(=O)Nc3ccc(C(F)(F)F)cc3)c3c(=O)n(C)c(=O)n(C)c3n2)CC1`, in series [1], the CC50 at 72 h is over 50 µM. In addition, the half-maximal inhibitory concentration (IC50) is 46.4 µM in the series with SK-MEL-2, over 50 µM in the series on MCF7 and over 50 µM in the series with A-375.
Consider `Cn1c(=O)c2c(Nc3ccc(OC(F)(F)F)cc3)cc(=O)n(C)c2n(C)c1=O`, for which, in series [1], the half-maximal cytotoxic concentration (CC50) at 72 h is over 100 µM. The results for the IC50 in the series with MCF7 and with A-375 were 49.8 µM and 40.7 µM, respectively.
For `CN(C)c1cc(NCC(=O)Nc2ccc(Cl)cc2)c2c(=O)n(C)c(=O)n(C)c2n1`, the CC50 at 72 h in series [1] is over 100 µM. Besides, the IC50 in the series with MCF7 is 49.2 µM; in the series with A-375, over 50 µM.
For `COC(=O)c1ccccc1Nc1cc(=O)n(C)c2c1c(=O)n(C)c(=O)n2C`, in series [1], the CC50 at 72 h is over 100 µM. The IC50 was 33.4 µM in the series on MCF7 and over 50 µM with A-375.
The matching figures for `Cc1ccccc1NC(=O)CNc1cc(=O)n(C)c2c1c(=O)n(C)c(=O)n2C`: over 100 µM, 17.2 µM and 13 µM.
